{"source": "paper PMC9516332", "about": "(Frontiers in Oncology, 2022)", "tested_on": "134 cancer cell lines", "assay": "Cell viability assay (ATPlite, 72 hours), IC50 on cancer cell line panel", "note": "pIC50: −log10 of the molar value. Read-outs that look alike come from different tables or passages of the source."}
{"molecule": "COc1cc2ncnc(Nc3ccc(F)c(Cl)c3)c2cc1NC(=O)/C=C/CN1CCCCC1", "note": "[dacomitinib]", "values": [{"measurement": "pIC50", "setting": "Homo sapiens, MKN-45, read-out: IC50 in cell proliferation assay, MKN45 cell line (MET amplification)", "result": 5.37}, {"measurement": "pIC50", "setting": "Homo sapiens, MOLM-13, read-out: IC50 in cell proliferation assay, MOLM-13 cell line (FLT3 ITD)", "result": 5.93}, {"measurement": "pIC50", "setting": "Homo sapiens, MOLT-4, read-out: IC50 in cell proliferation assay, MOLT-4 cell line", "result": 5.44}, {"measurement": "pIC50", "setting": "Homo sapiens, MV4-11, read-out: IC50 in cell proliferation assay, MV4-11 cell line (FLT3 ITD)", "result": 6.64}, {"measurement": "pIC50", "setting": "Homo sapiens, MeWo, read-out: IC50 in cell proliferation assay, MeWo cell line", "result": 5.41}, {"measurement": "pIC50", "setting": "Homo sapiens, NCCIT, read-out: IC50 in cell proliferation assay, NCC-IT cell line", "result": 5.35}, {"measurement": "pIC50", "setting": "Homo sapiens, NCI-H82, read-out: IC50 in cell proliferation assay, cell line NCI-H82", "result": 5.41}, {"measurement": "pIC50", "setting": "Homo sapiens, NCI-H460, read-out: IC50 in cell proliferation assay, NCI-H460 cell line", "result": 5.33}, {"measurement": "pIC50", "setting": "Homo sapiens, NCI-H661, read-out: IC50 in cell proliferation assay, NCI-H661 cell line", "result": 5.43}, {"measurement": "pIC50", "setting": "Homo sapiens, NCI-H716, read-out: IC50 in cell proliferation assay, cell line NCI-H716 (FGFR2-COL14A1)", "result": 5.31}, {"measurement": "pIC50", "setting": "Homo sapiens, NCI-H1650, read-out: IC50 in cell proliferation assay, NCI-H1650 cell line (EGFR exon19del)", "result": 8.22}, {"measurement": "pIC50", "setting": "Homo sapiens, NCI-H1975, read-out: IC50 in cell proliferation assay, NCI-H1975 cell line (EGFR p.L858R + p.T790M)", "result": 6.82}, {"measurement": "pIC50", "setting": "Homo sapiens, NCI-H2228, read-out: IC50 in cell proliferation assay, NCI-H2228 cell line (EML4-ALK)", "result": 5.31}, {"measurement": "pIC50", "setting": "Homo sapiens, OVCAR-3, read-out: IC50 in cell proliferation assay, cell line OVCAR-3", "result": 7.64}, {"measurement": "pIC50", "setting": "Homo sapiens, PFSK-1, read-out: IC50 in cell proliferation assay, cell line PFSK-1", "result": 5.35}, {"measurement": "pIC50", "setting": "Homo sapiens, RL95-2, read-out: IC50 in cell proliferation assay, cell line RL95-2 (EGFR p.A289V)", "result": 8.10}, {"measurement": "pIC50", "setting": "Homo sapiens, RPMI-7951, read-out: IC50 in cell proliferation assay, cell line RPMI-7951 (BRAF p.V600E)", "result": 5.40}, {"measurement": "pIC50", "setting": "Homo sapiens, RS4-11, read-out: IC50 in cell proliferation assay, cell line RS4;11", "result": 5.47}, {"measurement": "pIC50", "setting": "Homo sapiens, Rec1, read-out: IC50 in cell proliferation assay, cell line REC-1", "result": 6.07}, {"measurement": "pIC50", "setting": "Homo sapiens, SHP77, read-out: IC50 in cell proliferation assay, cell line SHP-77", "result": 5.29}, {"measurement": "pIC50", "setting": "Homo sapiens, SK-BR-3, read-out: IC50 in cell proliferation assay, cell line SK-BR-3 (ERBB2 amplification)", "result": 7.57}, {"measurement": "pIC50", "setting": "Homo sapiens, SK-N-AS, read-out: IC50 in cell proliferation assay, cell line SK-N-AS", "result": 5.51}, {"measurement": "pIC50", "setting": "Homo sapiens, SK-N-FI, read-out: IC50 in cell proliferation assay, cell line SK-N-FI", "result": 5.47}, {"measurement": "pIC50", "setting": "Homo sapiens, SK-N-MC, read-out: IC50 in cell proliferation assay, cell line SK-N-MC", "result": 5.53}, {"measurement": "pIC50", "setting": "Homo sapiens, SK-N-SH, read-out: IC50 in cell proliferation assay, cell line SK-N-SH (ALK p.F1174L)", "result": 5.61}, {"measurement": "pIC50", "setting": "Homo sapiens, SNU-5, read-out: IC50 in cell proliferation assay, cell line SNU-5 (MET amplification)", "result": 5.47}, {"measurement": "pIC50", "setting": "Homo sapiens, SNU-16, read-out: IC50 in cell proliferation assay, cell line SNU-16 (FGFR2 amplification)", "result": 5.41}, {"measurement": "pIC50", "setting": "Homo sapiens, SNU-C2B, read-out: IC50 in cell proliferation assay, cell line SNU-C2B (EGFR p.R165Q)", "result": 5.25}, {"measurement": "pIC50", "setting": "Homo sapiens, SU-DHL-1, read-out: IC50 in cell proliferation assay, cell line SU-DHL-1 (NPM1-ALK)", "result": 5.45}, {"measurement": "pIC50", "setting": "Homo sapiens, SU-DHL-6, read-out: IC50 in cell proliferation assay, cell line SU-DHL-6", "result": 5.59}, {"measurement": "pIC50", "setting": "Homo sapiens, SUP-T1, read-out: IC50 in cell proliferation assay, cell line SUP-T1", "result": 5.34}, {"measurement": "pIC50", "setting": "Homo sapiens, SW48, read-out: IC50 in cell proliferation assay, cell line SW48 (EGFR p.G719S)", "result": 9.20}, {"measurement": "pIC50", "setting": "Homo sapiens, SW480, read-out: IC50 in cell proliferation assay, cell line SW480", "result": 5.32}, {"measurement": "pIC50", "setting": "Homo sapiens, SW626, read-out: IC50 in cell proliferation assay, cell line SW626", "result": 5.28}, {"measurement": "pIC50", "setting": "Homo sapiens, SW780, read-out: IC50 in cell proliferation assay, cell line SW780 (FGFR3-BAIAP2L1)", "result": 5.34}, {"measurement": "pIC50", "setting": "Homo sapiens, SW837, read-out: IC50 in cell proliferation assay, cell line SW837", "result": 5.19}, {"measurement": "pIC50", "setting": "Homo sapiens, SW872, read-out: IC50 in cell proliferation assay, cell line SW872 (BRAF p.V600E)", "result": 5.30}, {"measurement": "pIC50", "setting": "Homo sapiens, SW900, read-out: IC50 in cell proliferation assay, cell line SW900", "result": 5.32}, {"measurement": "pIC50", "setting": "Homo sapiens, SW948, read-out: IC50 in cell proliferation assay, cell line SW948", "result": 5.32}, {"measurement": "pIC50", "setting": "Homo sapiens, SW982, read-out: IC50 in cell proliferation assay, cell line SW982 (BRAF p.V600E)", "result": 5.40}, {"measurement": "pIC50", "setting": "Homo sapiens, SW-620, read-out: IC50 in cell proliferation assay, cell line SW620", "result": 5.29}, {"measurement": "pIC50", "setting": "Homo sapiens, T98G, read-out: IC50 in cell proliferation assay, cell line T98G", "result": 5.34}, {"measurement": "pIC50", "setting": "Homo sapiens, TCC-SUP, read-out: IC50 in cell proliferation assay, cell line TCCSUP", "result": 5.47}, {"measurement": "pIC50", "setting": "Homo sapiens, THP-1, read-out: IC50 in cell proliferation assay, cell line THP-1", "result": 5.41}, {"measurement": "pIC50", "setting": "Homo sapiens, U2OS, read-out: IC50 in cell proliferation assay, cell line U2OS", "result": 5.48}, {"measurement": "pIC50", "setting": "Homo sapiens, U-87 MG, read-out: IC50 in cell proliferation assay, cell line U-87MG ATCC", "result": 5.36}, {"measurement": "pIC50", "setting": "Homo sapiens, U-118-MG, read-out: IC50 in cell proliferation assay, cell line U-118MG", "result": 5.44}, {"measurement": "pIC50", "setting": "Homo sapiens, UMUC3, read-out: IC50 in cell proliferation assay, cell line UM-UC-3", "result": 5.50}, {"measurement": "pIC50", "setting": "Hs766T, read-out: IC50 in cell proliferation assay, Hs 766T cell line", "result": 5.30}, {"measurement": "pIC50", "setting": "L-82, read-out: IC50 in cell proliferation assay, L-82 cell line (NPM1-ALK)", "result": 5.78}, {"measurement": "pIC50", "setting": "Rh30, read-out: IC50 in cell proliferation assay, cell line Rh30", "result": 5.41}, {"measurement": "pIC50", "setting": "read-out: IC50 in cell proliferation assay, 11-18 cell line (EGFR p.L858R)", "result": 8.70}, {"measurement": "pIC50", "setting": "read-out: IC50 in cell proliferation assay, Hs 852.T cell line", "result": 5.43}, {"measurement": "pIC50", "setting": "read-out: IC50 in cell proliferation assay, JAR cell line", "result": 5.52}, {"measurement": "pIC50", "setting": "read-out: IC50 in cell proliferation assay, cell line 5637", "result": 7.51}, {"measurement": "pIC50", "setting": "read-out: IC50 in cell proliferation assay, cell line A-388", "result": 7.72}, {"measurement": "pIC50", "setting": "read-out: IC50 in cell proliferation assay, cell line DB", "result": 5.44}, {"measurement": "pIC50", "setting": "read-out: IC50 in cell proliferation assay, cell line DEL (NPM1-ALK)", "result": 5.69}, {"measurement": "pIC50", "setting": "read-out: IC50 in cell proliferation assay, cell line ES-2 (BRAF p.V600E)", "result": 5.52}, {"measurement": "pIC50", "setting": "read-out: IC50 in cell proliferation assay, cell line PA-1", "result": 5.57}, {"measurement": "pIC50", "setting": "read-out: IC50 in cell proliferation assay, cell line PC-3", "result": 5.28}, {"measurement": "pIC50", "setting": "read-out: IC50 in cell proliferation assay, cell line RD", "result": 5.60}, {"measurement": "pIC50", "setting": "read-out: IC50 in cell proliferation assay, cell line RKO (BRAF p.V600E)", "result": 5.45}, {"measurement": "pIC50", "setting": "read-out: IC50 in cell proliferation assay, cell line RL", "result": 5.38}, {"measurement": "pIC50", "setting": "read-out: IC50 in cell proliferation assay, cell line RT-4 (FGFR3-TACC3)", "result": 7.85}, {"measurement": "pIC50", "setting": "read-out: IC50 in cell proliferation assay, cell line SR (NPM1-ALK)", "result": 5.45}, {"measurement": "pIC50", "setting": "read-out: IC50 in cell proliferation assay, cell line T24", "result": 5.52}, {"measurement": "pIC50", "setting": "read-out: IC50 in cell proliferation assay, cell line TT (RET p.C634W)", "result": 5.32}, {"measurement": "pIC50", "setting": "read-out: IC50 in cell proliferation assay, cell line VA-ES-BJ", "result": 5.45}]}
